Measurements reported in ChEMBL document CHEMBL5465560, “Selectivity Literature for EUbOPEN Chemogenomic Library” (2024).

Tests used:
[1] = target: Rho-associated protein kinase 2 (Homo sapiens, UniProt O75116); assay: Selectivity interaction (SelectScreen profiling (Invitrogen)) EUB0000607a ROCK2; settings: at 2 µM
[2] = target: T1, 5-hydroxytryptamine receptor 3A (Homo sapiens) (UniProt P46098); assay: Selectivity interaction (Panel of kinases, GPCRs, ion channels and transporters (enzymatic assay)) EUB0000266bCl HTR3A
T1 sequence (whole entry): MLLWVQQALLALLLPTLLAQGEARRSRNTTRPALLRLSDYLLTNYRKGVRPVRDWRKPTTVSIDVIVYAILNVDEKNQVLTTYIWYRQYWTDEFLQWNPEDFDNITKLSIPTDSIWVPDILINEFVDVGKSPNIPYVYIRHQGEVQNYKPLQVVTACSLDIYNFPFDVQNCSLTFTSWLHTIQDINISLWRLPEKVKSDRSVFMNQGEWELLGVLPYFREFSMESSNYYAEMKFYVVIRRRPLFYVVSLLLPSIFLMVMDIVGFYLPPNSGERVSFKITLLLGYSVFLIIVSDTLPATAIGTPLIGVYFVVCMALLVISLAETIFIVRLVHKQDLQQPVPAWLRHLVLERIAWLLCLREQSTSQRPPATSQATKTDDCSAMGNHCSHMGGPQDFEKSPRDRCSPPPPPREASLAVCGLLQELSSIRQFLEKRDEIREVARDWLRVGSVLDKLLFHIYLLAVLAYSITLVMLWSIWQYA

[3] = target: T2, Cytoplasmic tyrosine-protein kinase BMX (Homo sapiens) (UniProt P51813); assay: Selectivity interaction (Kinase panel (Invitrogen)) EUB0000639a BMX; settings: at 200 nM
T2 sequence (whole entry): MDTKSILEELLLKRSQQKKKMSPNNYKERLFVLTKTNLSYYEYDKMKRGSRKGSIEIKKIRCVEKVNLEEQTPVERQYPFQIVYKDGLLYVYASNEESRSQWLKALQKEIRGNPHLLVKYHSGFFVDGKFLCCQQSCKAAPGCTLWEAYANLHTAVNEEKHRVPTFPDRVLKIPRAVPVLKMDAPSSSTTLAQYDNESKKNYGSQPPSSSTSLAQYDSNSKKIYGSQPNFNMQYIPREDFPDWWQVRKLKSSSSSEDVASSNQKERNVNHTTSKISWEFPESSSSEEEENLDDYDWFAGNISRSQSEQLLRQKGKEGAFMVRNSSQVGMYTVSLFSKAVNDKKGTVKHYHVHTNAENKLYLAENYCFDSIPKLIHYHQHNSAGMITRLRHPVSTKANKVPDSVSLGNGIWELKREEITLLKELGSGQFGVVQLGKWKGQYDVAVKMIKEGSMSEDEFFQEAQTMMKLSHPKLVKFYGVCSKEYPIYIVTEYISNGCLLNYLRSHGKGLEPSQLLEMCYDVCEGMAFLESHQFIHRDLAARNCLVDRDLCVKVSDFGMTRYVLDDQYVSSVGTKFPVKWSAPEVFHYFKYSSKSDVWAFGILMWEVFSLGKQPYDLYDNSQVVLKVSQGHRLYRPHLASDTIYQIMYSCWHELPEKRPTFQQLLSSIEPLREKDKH

[4] = target: MAP kinase-interacting serine/threonine-protein kinase 1 (Homo sapiens) (UniProt Q9BUB5); assay: Selectivity interaction (Kinase panel (Invitrogen)) EUB0000639a MKNK1; settings: at 200 nM
Sequence of MAP kinase-interacting serine/threonine-protein kinase 1 (Homo sapiens) (Q9BUB5 whole entry, looked up): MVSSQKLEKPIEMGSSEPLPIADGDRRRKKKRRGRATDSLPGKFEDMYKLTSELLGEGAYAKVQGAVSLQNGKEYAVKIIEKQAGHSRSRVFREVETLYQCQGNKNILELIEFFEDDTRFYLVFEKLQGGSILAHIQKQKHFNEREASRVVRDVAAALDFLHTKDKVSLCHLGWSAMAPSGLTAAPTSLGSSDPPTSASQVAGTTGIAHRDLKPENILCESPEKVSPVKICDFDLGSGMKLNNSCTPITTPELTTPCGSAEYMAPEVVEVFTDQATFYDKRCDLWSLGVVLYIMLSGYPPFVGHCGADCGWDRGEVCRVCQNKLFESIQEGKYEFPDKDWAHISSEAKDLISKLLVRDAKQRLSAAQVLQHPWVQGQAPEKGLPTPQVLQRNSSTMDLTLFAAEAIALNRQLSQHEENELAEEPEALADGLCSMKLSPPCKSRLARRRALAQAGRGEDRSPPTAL

[5] = target: Mitogen-activated protein kinase 9 (Homo sapiens, UniProt P45984); assay: Selectivity interaction (Kinase screening (Upstate/Millipore)) EUB0000604a MAPK9
Sequence of Mitogen-activated protein kinase 9 (P45984 whole entry, looked up): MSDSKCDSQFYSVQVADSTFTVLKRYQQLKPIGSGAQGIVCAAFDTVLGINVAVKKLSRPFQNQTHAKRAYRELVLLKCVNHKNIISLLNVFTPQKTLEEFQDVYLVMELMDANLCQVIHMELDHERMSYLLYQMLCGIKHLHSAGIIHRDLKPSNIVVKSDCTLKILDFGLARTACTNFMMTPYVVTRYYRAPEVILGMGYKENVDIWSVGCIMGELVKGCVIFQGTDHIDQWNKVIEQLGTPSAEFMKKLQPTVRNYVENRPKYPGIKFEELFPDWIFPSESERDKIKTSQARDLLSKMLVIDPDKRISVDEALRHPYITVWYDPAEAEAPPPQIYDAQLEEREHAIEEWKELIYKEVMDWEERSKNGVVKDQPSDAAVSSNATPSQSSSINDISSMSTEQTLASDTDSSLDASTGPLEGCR

[6] = target: T3, SNF-related serine/threonine-protein kinase (Homo sapiens) (UniProt Q9NRH2); assay: Selectivity interaction (KinomeScan (DiscoverX)) EUB0000655a SNRK; settings: at 10 µM
T3 sequence (whole entry): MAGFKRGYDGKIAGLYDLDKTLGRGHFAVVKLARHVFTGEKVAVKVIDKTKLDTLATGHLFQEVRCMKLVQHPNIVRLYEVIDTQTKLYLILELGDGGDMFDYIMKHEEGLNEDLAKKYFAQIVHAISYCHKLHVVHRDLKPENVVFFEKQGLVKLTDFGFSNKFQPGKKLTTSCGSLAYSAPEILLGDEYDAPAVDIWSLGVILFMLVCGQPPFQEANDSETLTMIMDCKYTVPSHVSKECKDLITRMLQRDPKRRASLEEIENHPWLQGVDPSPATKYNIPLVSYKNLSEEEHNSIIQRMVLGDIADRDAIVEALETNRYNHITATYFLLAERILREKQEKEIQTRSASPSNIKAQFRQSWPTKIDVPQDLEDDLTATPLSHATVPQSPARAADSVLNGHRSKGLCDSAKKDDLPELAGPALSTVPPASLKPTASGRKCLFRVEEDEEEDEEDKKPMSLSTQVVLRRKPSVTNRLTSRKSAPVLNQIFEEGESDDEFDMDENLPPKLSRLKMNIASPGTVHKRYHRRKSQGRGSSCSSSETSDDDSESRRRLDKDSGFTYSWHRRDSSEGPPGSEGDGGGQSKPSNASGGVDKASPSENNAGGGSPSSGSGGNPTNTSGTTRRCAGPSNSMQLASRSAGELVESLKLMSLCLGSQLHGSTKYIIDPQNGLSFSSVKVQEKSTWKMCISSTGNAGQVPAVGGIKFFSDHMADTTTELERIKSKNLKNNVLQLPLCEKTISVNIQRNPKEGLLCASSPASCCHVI

[7] = target: Protein-tyrosine kinase 6 (Homo sapiens, UniProt Q13882)
Sequence of Protein-tyrosine kinase 6 (Q13882 whole entry): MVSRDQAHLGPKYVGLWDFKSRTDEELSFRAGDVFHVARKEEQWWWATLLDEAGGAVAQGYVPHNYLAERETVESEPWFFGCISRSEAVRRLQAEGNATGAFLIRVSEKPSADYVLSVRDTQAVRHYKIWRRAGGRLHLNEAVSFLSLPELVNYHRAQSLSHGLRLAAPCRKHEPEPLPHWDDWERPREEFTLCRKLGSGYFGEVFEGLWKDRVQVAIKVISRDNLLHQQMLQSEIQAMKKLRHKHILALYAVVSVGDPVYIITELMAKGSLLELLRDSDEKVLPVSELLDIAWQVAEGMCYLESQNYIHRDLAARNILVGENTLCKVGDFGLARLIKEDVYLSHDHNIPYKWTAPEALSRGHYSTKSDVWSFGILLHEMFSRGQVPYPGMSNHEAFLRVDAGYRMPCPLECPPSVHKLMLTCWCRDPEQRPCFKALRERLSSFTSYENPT

[8] = target: T4, Calcium/calmodulin-dependent protein kinase type IV (Homo sapiens) (UniProt Q16566); assay: Selectivity interaction (KinomeScan (DiscoverX)) EUB0001079a CAMK4; settings: at 1 µM
T4 sequence (whole entry): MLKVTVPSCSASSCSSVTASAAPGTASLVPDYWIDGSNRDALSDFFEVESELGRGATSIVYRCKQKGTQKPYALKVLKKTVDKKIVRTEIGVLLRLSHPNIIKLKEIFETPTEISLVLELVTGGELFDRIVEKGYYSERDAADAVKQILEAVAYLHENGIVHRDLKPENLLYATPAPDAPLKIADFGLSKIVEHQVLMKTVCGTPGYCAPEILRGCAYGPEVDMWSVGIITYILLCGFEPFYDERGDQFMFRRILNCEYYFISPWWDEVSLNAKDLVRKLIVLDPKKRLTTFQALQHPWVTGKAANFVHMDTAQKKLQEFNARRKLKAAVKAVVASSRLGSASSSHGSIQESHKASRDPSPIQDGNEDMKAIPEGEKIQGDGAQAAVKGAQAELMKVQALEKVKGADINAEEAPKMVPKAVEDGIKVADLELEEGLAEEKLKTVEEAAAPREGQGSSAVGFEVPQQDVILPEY

Sequence of Rho-associated protein kinase 2 (O75116 whole entry, looked up): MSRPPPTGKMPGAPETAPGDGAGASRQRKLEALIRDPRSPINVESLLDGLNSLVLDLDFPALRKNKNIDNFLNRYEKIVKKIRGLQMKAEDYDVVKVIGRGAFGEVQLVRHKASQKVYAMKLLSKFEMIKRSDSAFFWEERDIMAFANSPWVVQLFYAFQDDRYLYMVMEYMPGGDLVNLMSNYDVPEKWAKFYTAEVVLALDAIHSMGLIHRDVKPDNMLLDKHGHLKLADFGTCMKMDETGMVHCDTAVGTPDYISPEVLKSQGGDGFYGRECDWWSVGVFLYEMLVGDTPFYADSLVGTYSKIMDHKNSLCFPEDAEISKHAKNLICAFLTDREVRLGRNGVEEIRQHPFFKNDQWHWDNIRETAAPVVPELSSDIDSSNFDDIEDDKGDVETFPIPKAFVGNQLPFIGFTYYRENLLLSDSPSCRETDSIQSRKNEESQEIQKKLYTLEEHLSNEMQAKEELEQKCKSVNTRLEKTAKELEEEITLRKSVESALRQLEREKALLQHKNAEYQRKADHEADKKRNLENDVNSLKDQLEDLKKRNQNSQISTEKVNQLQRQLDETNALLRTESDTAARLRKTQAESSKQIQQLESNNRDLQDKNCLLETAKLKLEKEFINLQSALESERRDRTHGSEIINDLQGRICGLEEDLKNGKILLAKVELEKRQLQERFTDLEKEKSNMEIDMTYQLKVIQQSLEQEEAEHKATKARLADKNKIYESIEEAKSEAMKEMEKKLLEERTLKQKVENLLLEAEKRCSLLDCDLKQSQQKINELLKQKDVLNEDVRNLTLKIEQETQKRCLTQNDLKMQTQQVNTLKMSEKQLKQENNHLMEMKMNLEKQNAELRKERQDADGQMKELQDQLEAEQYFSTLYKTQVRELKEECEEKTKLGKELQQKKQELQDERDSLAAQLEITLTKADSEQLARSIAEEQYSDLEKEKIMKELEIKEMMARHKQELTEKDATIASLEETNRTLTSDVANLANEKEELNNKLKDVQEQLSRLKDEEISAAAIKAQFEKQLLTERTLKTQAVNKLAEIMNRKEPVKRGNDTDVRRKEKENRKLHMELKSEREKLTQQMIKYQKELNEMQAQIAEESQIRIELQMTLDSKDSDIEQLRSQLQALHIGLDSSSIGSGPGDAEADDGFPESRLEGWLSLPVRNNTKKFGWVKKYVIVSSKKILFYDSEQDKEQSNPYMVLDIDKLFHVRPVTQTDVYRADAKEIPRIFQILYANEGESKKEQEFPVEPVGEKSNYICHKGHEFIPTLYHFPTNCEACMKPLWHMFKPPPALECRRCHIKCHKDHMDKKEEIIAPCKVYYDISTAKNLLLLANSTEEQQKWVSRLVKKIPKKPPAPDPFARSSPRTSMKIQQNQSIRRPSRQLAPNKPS

CNC(=O)Nc1ccc(-c2nc(N3CC4CCC(C3)O4)c3cnn(C4CCC5(CC4)OCCO5)c3n2)cc1
% of inhibition [1]: 5%

CCn1c(-c2nc3cc(C(=O)N4CCCC(N)C4)ccc3n2C)cc2ccccc21 (stereo not drawn)
pXC50 [2]: 5.6 M

CC[C@@H]1[C@H](F)C(=O)N[C@@H]1COc1nccc2cc(C(N)=O)c(OC)cc12 [ZIMLOVISERTIB]
% of inhibition [3]: -1.42%
% of inhibition [4]: 46.2%

Cc1cnc(Nc2ccc(F)cc2Cl)nc1-c1c[nH]c(C(=O)N[C@H](CO)c2cccc(Cl)c2)c1
% of inhibition [5]: 43%

CN(C)CCOc1ccc(-c2nc(-c3ccncc3)c(-c3ccc4c(c3)CC/C4=N\O)[nH]2)cc1
% of control [6]: 89%

CCc1cccc(CC)c1NC(=O)c1nn(C)c2c1CCc1cnc(Nc3ccc(C(=O)NC4CCN(C)CC4)cc3OC(F)(F)F)nc1-2
IC50 [7]: > 10 µM

Nc1cnc(N2CCc3cc(S(=O)(=O)Nc4c(F)cc(Cl)cc4F)cc(N4CCCC4=O)c32)nc1 [TP-020n]
% of control [8]: 96%
